Key:
HCC1954 = experiment: area over the GR curve, 72 h; higher = more effect;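 further: Dye Drop or Deep Dye Drop imaging of viable cells in 384-well plates (Hoechst nuclei, LIVE/DEAD dye), nine half-log doses, GR normalized to DMSO controls and time-zero plates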
HTERT_HME1 = experiment: area over the GR curve, 72 h; higher = more effect;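 further: Dye Drop or Deep Dye Drop imaging of viable cells in 384-well plates (Hoechst nuclei, LIVE/DEAD dye), nine half-log doses, GR normalized to DMSO controls and time-zero plates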
CAL851 = experiment: area over the GR curve, 72 h; higher = more effect;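 further: Dye Drop or Deep Dye Drop imaging of viable cells in 384-well plates (Hoechst nuclei, LIVE/DEAD dye), nine half-log doses, GR normalized to DMSO controls and time-zero plates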
HS578T = experiment: GRmax, 72 h; higher = less effect;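 further: breast cell lines in 384-well plates, nine doses across a 10^4 range, Dye Drop imaging of viable cells vs DMSO and time-zero plates, GR 0 means no net growth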
MDAMB330 = experiment: GRmax, 72 h; higher = less effect;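 further: breast cell lines in 384-well plates, nine doses across a 10^4 range, Dye Drop imaging of viable cells vs DMSO and time-zero plates, GR 0 means no net growth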
HCC1143 = experiment: GRmax, 72 h; higher = less effect;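 further: breast cell lines in 384-well plates, nine doses across a 10^4 range, Dye Drop imaging of viable cells vs DMSO and time-zero plates, GR 0 means no net growth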
HCC202 = experiment: GRmax, 72 h; higher = less effect;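 further: breast cell lines in 384-well plates, nine doses across a 10^4 range, Dye Drop imaging of viable cells vs DMSO and time-zero plates, GR 0 means no net growth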
PDX1258 = experiment: GRmax, 72 h; higher = less effect
SKBR3 = experiment: GRmax, 72 h; higher = less effect
MDAMB453 = experiment: GRmax, 72 h; higher = less effect
HCC1569 = experiment: GRmax, 72 h; higher = less effect

SMILES | area over the GR curve (HCC1954) | area over the GR curve (HTERT_HME1) | area over the GR curve (CAL851) | GRmax, 72 h (HS578T) | GRmax, 72 h (MDAMB330) | GRmax, 72 h (HCC1143) | GRmax, 72 h (HCC202) | GRmax, 72 h (PDX1258) | GRmax, 72 h (SKBR3) | GRmax, 72 h (MDAMB453) | GRmax, 72 h (HCC1569)
NC1(C(=O)N[C@@H](CCO)c2ccc(Cl)cc2)CCN(c2nc[nH]c3nccc2-3)CC1 [AZD5363] (max 10 µM) | 0.23 GR | 0.188 GR | 0.106 GR | 0.349 GR | -0.643 GR | 0.769 GR | 0.572 GR | 0.321 GR | 0.138 GR | 0.23 GR | 0.0764 GR
CN(C)C/C=C/C(=O)Nc1ccc(C(=O)Nc2cccc(Nc3cc(-c4c[nH]c5ccccc45)ncn3)c2)cc1 [THZ-P1-2] (max 10 µM) | 0.114 GR | 0.107 GR | 0.217 GR | 0.92 GR | -0.777 GR | -0.404 GR | -0.2 GR | -0.891 GR | -0.777 GR | -0.706 GR | -0.359 GR
O=C1NC(=O)[C@@H](c2cn3c4c(cccc24)CCC3)[C@@H]1c1c[nH]c2ccccc12 [Tivantinib/ARQ197] (max 10 µM) | 0.544 GR | 0.648 GR | 0.518 GR | -0.32 GR | -0.321 GR | -0.312 GR | 0.114 GR | -0.209 GR | -0.352 GR | -0.0719 GR | -0.11 GR
CN1CC[C@H](c2c(O)cc(O)c3c(=O)cc(-c4ccccc4Cl)oc23)[C@H](O)C1 [Flavopiridol] (max 1 µM) | 0.313 GR | 0.319 GR | 0.3 GR | -0.256 GR | -0.892 GR | -0.316 GR | 0.027 GR | -0.507 GR | -0.656 GR | -0.188 GR | -0.177 GR
CN(C)C/C=C/C(=O)Nc1ccc(C(=O)Nc2cccc(Nc3ncc(Cl)c(-c4c[nH]c5ccccc45)n3)c2)cc1 [THZ1] (max 1 µM) | 0.31 GR | 0.76 GR | 0.639 GR | -0.371 GR | -0.945 GR | -0.318 GR | -0.0084 GR | -0.716 GR | -0.789 GR | -0.256 GR | -0.325 GR
CNc1nc(-c2ccc3c(N)n[nH]c3c2)cc(N2C[C@@H](C(=O)NC3CCCCC3)CC[C@H]2C)n1 (max 10 µM) | 0.0806 GR | 0.128 GR | 0.201 GR | 0.538 GR | -0.738 GR | 0.742 GR | 0.155 GR | 0.644 GR | 0.307 GR | 0.147 GR | 0.673 GR
CCC(=O)Nc1ccc(C(=O)Nc2ccc(Nc3ncc4c(n3)N(C)c3ccc(C)cc3C(=O)N4C)cc2)cc1 [FMF-03-145-1] | 1.15 GR | 0.44 GR | 0.626 GR | -0.183 GR | -0.0541 GR | 0.09 GR | 0.23 GR | -0.267 GR | -0.0145 GR | 0.0994 GR | -0.125 GR
CC(C)n1nc(-c2ccc3oc(N)nc3c2)c2c(N)ncnc21 [INK128/MLN0128] (max 3.162 µM) | 0.565 GR | 0.401 GR | 0.626 GR | -0.0708 GR | -0.77 GR | 0.0314 GR | -0.01 GR | -0.138 GR | -0.506 GR | -0.468 GR | 0.088 GR
O=C1NC(=NCc2cccs2)SC1=Cc1ccc2ncccc2c1 [R0-3306] (max 10 µM) | 0.0716 GR | 0.0677 GR | 0.159 GR | -0.0503 GR | -0.159 GR | -0.114 GR | 0.203 GR | -0.274 GR | -0.0433 GR | 0.0452 GR | -0.166 GR
COc1cc2c(Oc3ccc4[nH]c(C)cc4c3F)ncnc2cc1OCCCN1CCCC1 [Cediranib/AZD2171] (max 10 µM) | 0.0591 GR | -0.0207 GR | 0.179 GR | -0.572 GR | -0.529 GR | 0.0093 GR | 0.364 GR | -0.561 GR | -0.54 GR | -0.689 GR | 0.875 GR
CN(C)CC[C@H](CSc1ccccc1)Nc1ccc(S(=O)(=O)NC(=O)c2ccc(N3CCN(Cc4ccccc4-c4ccc(Cl)cc4)CC3)cc2)cc1[N+](=O)[O-] [ABT-737] (max 10 µM) | 0.027 GR | 0.081 GR | -0.0516 GR | 0.775 GR | -0.104 GR | 0.376 GR | 0.588 GR | 0.758 GR | 0.947 GR | 0.152 GR | -0.406 GR
COc1cc(N2CCN(C)CC2)ccc1Nc1ncc2c(n1)N(C)c1ccccc1C(=O)N2CC(F)(F)F [FMF-03-146-1] | 0.0296 GR | 0.049 GR | 0.0805 GR | 0.944 GR | 0.866 GR | 0.815 GR | 0.892 GR | 1.2 GR | 0.676 GR | 0.803 GR | 1.03 GR
CCc1cncnc1N1CCN(Cc2nc3ccc(C(F)(F)F)cc3[nH]2)CC1 (max 10 µM) | -0.0456 GR | 0.117 GR | -0.0315 GR | 0.914 GR | 0.621 GR | 0.739 GR | 0.673 GR | 0.775 GR | 0.734 GR | 0.0482 GR | 0.7 GR
CO[C@H]1C[C@@H]2CC[C@@H](C)[C@@](O)(O2)C(=O)C(=O)N2CCCC[C@H]2C(=O)O[C@H]([C@H](C)C[C@@H]2CC[C@@H](OCCO)[C@H](OC)C2)CC(=O)[C@H](C)/C=C(\C)[C@@H](O)[C@@H](OC)C(=O)[C@H](C)C[C@H](C)/C=C/C=C/C=C/1C [Everolimus] (max 10 µM) | 0.653 GR | 0.371 GR | 0.576 GR | 0.42 GR | -0.378 GR | 0.557 GR | 0.474 GR | 0.631 GR | 0.118 GR | 0.0309 GR | 0.555 GR
CN1CCN(C(=O)c2ccc3cc(CCNc4ncnc5ccc(C#N)cc45)ccc3c2)CC1 [senexin b] (max 10 µM) | 0.327 GR | 0.177 GR | 0.226 GR | 0.765 GR | 0.466 GR | 0.452 GR | 0.705 GR | 0.603 GR | 0.797 GR | 0.148 GR | 0.514 GR
C[C@@H]1COCCN1c1cc(C2([S@](C)(=N)=O)CC2)nc(-c2cc[nH]c3nccc2-3)n1 [AZD6738] (max 10 µM) | -0.0136 GR | -0.0027 GR | 0.071 GR | 0.0076 GR | 0.12 GR | -0.0627 GR | 0.383 GR | -0.295 GR | -0.0886 GR | -0.162 GR | -0.0623 GR
COc1ccc2c(c1)[C@]1(C[C@H]1c1ccc3c(/C=C/c4ccc(CN5C[C@@H](C)O[C@@H](C)C5)cc4)n[nH]c3c1)C(=O)N2 | 0.995 GR | 0.734 GR | 0.761 GR | -0.103 GR | 0.284 GR | 0.0518 GR | 0.493 GR | -0.0552 GR | -0.0682 GR | 0.0847 GR | -0.0697 GR
CC(=O)O[C@H]1C(=O)[C@@]2(C)[C@H]([C@H](OC(=O)c3ccccc3)[C@]3(O)C[C@H](OC(=O)[C@H](O)[C@@H](NC(=O)c4ccccc4)c4ccccc4)C(C)=C1C3(C)C)[C@]1(OC(C)=O)CO[C@@H]1C[C@@H]2O [Paclitaxel] (max 1 µM) | 0.827 GR | 0.676 GR | 0.793 GR | -0.375 GR | -0.438 GR | -0.335 GR | 0.0855 GR | -0.0818 GR | -0.34 GR | 0.0356 GR | 0.0183 GR
CCCCOc1c(C(=O)c2c(F)cc(C)cc2F)c[nH]c2nncc1-2 (max 10 µM) | 0.835 GR | 0.862 GR | 0.672 GR | -0.0288 GR | 0.129 GR | -0.0529 GR | 0.384 GR | -0.232 GR | -0.0172 GR | 0.31 GR | 0.0899 GR
Cc1nc(-c2cn3c(n2)-c2ccc(-c4cnn(C(C)(C)C(N)=O)c4)cc2OCC3)n(C(C)C)n1 [Taselisib/GDC0032] (max 10 µM) | 0.949 GR | 0.439 GR | 0.55 GR | -0.0179 GR | -0.924 GR | -0.0942 GR | 0.0192 GR | 0.106 GR | -0.207 GR | -0.635 GR | -0.121 GR
Cc1nn(C)c(COc2ccc(N3CCN(S(=O)(=O)N(C)C)CC3)cc2)c1-c1cccc2c(CCCOc3cccc4ccccc34)c(C(=O)O)n(CCN3CCOCC3)c12 (max 10 µM) | -0.0351 GR | 0.339 GR | 0.0108 GR | 0.942 GR | 0.881 GR | 0.672 GR | 0.828 GR | 0.919 GR | 0.627 GR | 0.933 GR | 0.928 GR
C=CC(=O)Nc1ccc(C(=O)Nc2[nH]nc3c2CN(C(=O)N[C@H](CN(C)C)c2ccccc2)C3(C)C)cc1 [YKL-5-124] (max 10 µM) | 0.969 GR | 0.889 GR | 1.2 GR | -0.445 GR | -0.765 GR | -0.0844 GR | -0.178 GR | -0.587 GR | -0.602 GR | -0.503 GR | -0.164 GR
Cc1cc(C(C)Nc2ccccc2)c2nc(N3CCOCC3)cc(=O)n2c1 (centres undefined) [TGX221] (max 10 µM) | -0.0656 GR | -0.0608 GR | -0.0591 GR | 0.709 GR | 0.858 GR | 0.918 GR | 0.782 GR | 0.997 GR | 0.75 GR | 0.828 GR | 0.774 GR
CC1(N)CCN(c2cnc(-c3cccc(Cl)c3Cl)c(N)n2)CC1 [SHP099] (max 10 µM) | 0.0791 GR | 0.0778 GR | 0.137 GR | 0.632 GR | 0.444 GR | 0.796 GR | 0.733 GR | 1.09 GR | 1.02 GR | 0.726 GR | 0.92 GR
